From ChEMBL document CHEMBL3885881, “DrugMatrix”

How the values were obtained:
Rattus norvegicus [1] = species on record: Rattus norvegicus; assay: DrugMatrix - Regimen: Daily Repeat; assay type: toxicity, organism-based, Sprague-Dawley; design: regimen Daily Repeat, gender Male, age 6-8 weeks; conditions: in vivo, po, 2 mg/kg, route oral GAVAGE, dose level High, vehicle 100 % WATER
Rattus norvegicus [2] = species on record: Rattus norvegicus; assay type: toxicity, organism-based, Sprague-Dawley; conditions: in vivo, po, 2 mg/kg, 24 h, route oral GAVAGE, dose level High, time 1 day, vehicle 100 % WATER
Description: DrugMatrix - Regimen: Single

[3] = […], tissue Plasma, time 14 day

## O=[Se]([O-])[O-].[Na+].[Na+] [SODIUM SELENITE]
Rattus norvegicus [1]; 120 h, tissue Plasma, time 5 day
  URIC ACID: 0.67 mg/dL
Rattus norvegicus [1]; […], tissue Blood, time 14 day
  ABSOLUTE BASOPHIL: 0 CELLS/uL
  ABSOLUTE EOSINOPHIL: 217 CELLS/uL
  ABSOLUTE LYMPHOCYTE: 17297 CELLS/uL
  ABSOLUTE MONOCYTE: 361.6 CELLS/uL
  ABSOLUTE SEGMENTED NEUTROPHIL: 2204.4 CELLS/uL
  BASOPHIL: 0%
  EOSINOPHIL: 1.2%
  ERYTHROCYTE COUNT: 6.02 x10E6/uL
  HEMATOCRIT: 35.24%
  HEMOGLOBIN: 13.22 G/DL
  LEUKOCYTE COUNT: 20.08 x10E3/uL
  LYMPHOCYTE: 85.8%
  MEAN CORPUSCULAR HEMOGLOBIN: 21.98 pg
  MEAN CORPUSCULAR HEMOGLOBIN CONCENTRATION: 37.54 G/DL
  MEAN CORPUSCULAR VOLUME: 58.52 fL
  MONOCYTE: 1.8%
  NEUTROPHIL: 11.2%
  NUCLEATED RED BLOOD CELLS: 0 /100WBC
  PLATELET COUNT: 1010.8 x10E3/uL
Rattus norvegicus [1]; [3]
  ALANINE AMINOTRANSFERASE: 60.2 u/L
  ALBUMIN: 4.26 G/DL
  ALKALINE PHOSPHATASE: 330.2 u/L
  ASPARTATE AMINOTRANSFERASE: 119.4 u/L
  BLOOD UREA NITROGEN: 14 mg/dL
  CARBON DIOXIDE: 22.8 mmol/L
  CHLORIDE: 104.2 MEQ/L
  CHOLESTEROL: 62.8 mg/dL
  CREATININE: 0.21 mg/dL
  GLUCOSE: 199.6 mg/dL
  LACTATE DEHYDROGENASE: 281.2 u/L
  LIPASE: 8 u/L
  PHOSPHORUS: 13.28 mg/dL
  POTASSIUM: 5.95 MEQ/L
  SODIUM: 148.62 MEQ/L
  TOTAL BILIRUBIN: 0.16 mg/dL
  TOTAL PROTEIN: 6.16 G/DL
  URIC ACID: 2.08 mg/dL
Rattus norvegicus [2]; tissue Blood
  ABSOLUTE EOSINOPHIL: 75.33 CELLS/uL
  ABSOLUTE LYMPHOCYTE: 14511 CELLS/uL
  ABSOLUTE MONOCYTE: 680 CELLS/uL
  ABSOLUTE SEGMENTED NEUTROPHIL: 1733.67 CELLS/uL
  BASOPHIL: 0%
  EOSINOPHIL: 0.67%
  ERYTHROCYTE COUNT: 5.44 x10E6/uL
  HEMATOCRIT: 34.57%
  HEMOGLOBIN: 12.77 G/DL
  LEUKOCYTE COUNT: 17 x10E3/uL
  LYMPHOCYTE: 85%
  MEAN CORPUSCULAR HEMOGLOBIN: 23.53 pg
  MEAN CORPUSCULAR HEMOGLOBIN CONCENTRATION: 36.97 G/DL
  MEAN CORPUSCULAR VOLUME: 63.6 fL
  MONOCYTE: 4%
  NEUTROPHIL: 10.33%
  NUCLEATED RED BLOOD CELLS: 0 /100WBC
  PLATELET COUNT: 978.67 x10E3/uL
Rattus norvegicus [2]; tissue Plasma
  ALANINE AMINOTRANSFERASE: 57.67 u/L
  ALBUMIN: 4.3 G/DL
  ALKALINE PHOSPHATASE: 357.67 u/L
  ASPARTATE AMINOTRANSFERASE: 80.67 u/L
  BLOOD UREA NITROGEN: 12.33 mg/dL
  CARBON DIOXIDE: 27.67 mmol/L
  CHLORIDE: 103 MEQ/L
  CHOLESTEROL: 82.67 mg/dL
  CREATININE: 0.15 mg/dL
  GLUCOSE: 177 mg/dL
  LACTATE DEHYDROGENASE: 119 u/L
  LIPASE: 7.67 u/L
  PHOSPHORUS: 13.23 mg/dL
  POTASSIUM: 6.75 MEQ/L
  SODIUM: 146.8 MEQ/L
  TOTAL BILIRUBIN: 0.2 mg/dL
  TOTAL PROTEIN: 5.73 G/DL
  URIC ACID: 2.07 mg/dL
